From patent US8470765B2, “Polypeptides and antibacterial or antiseptic use of same” (AnGes MG, Inc., priority 2009, dated 2013)
Values after ≈ are worked out from the molar mass of the structure shown. Like-named read-outs stand apart in the source and are kept apart here. No end group written: not given here.

What was measured:
[1] = tested on: methicillin-resistant Staphylococcus (MRSA) MRSA(i); assay: organism not typed; details: for MIC: read-out: MIC MRSA(i)
Protocol: (§1) Bacteria (Escherichia coli ATCC 25922, Pseudomonas aeruginosa ATCC 27853, Staphylococcus aureus ATCC29213, Klebsiella pneumoniae JCM 1662, Enterobacter cloacae JCM 1232, Enterobacter aerogenes JCM 1235 and Staphylococcus epidermidis JCM 2414) were inoculated to Mueller-Hinton broth: MHB or LB medium, and cultured at a temperature and period suited for each strain. From the thus obtained colonies, each strain was inoculated to a fresh liquid medium and cultured for 16 to 20 hours. Then an aliquot having a volume (10 to 50 appropriate to each strain was inoculated to a fresh liquid medium and cultured for 4 to 6 hours, followed by the measurement of the absorbance at 600 nm. After comparing the turbidity with McFarland #0.5, the resultant was diluted with a medium. Each strain was added to about 10^5 CFU/mL (final concentration).
(§2) Further, the antibacterial activities against the clinical strains collected and isolated from infected patients were also examined. The tests were carried out for two methicillin-resistant Staphylococcus (MRSA) (MRSA (i) and (ii)), two methicillin-sensitive Staphylococcus (MSSA) (MSSA (i) and (ii)), five Pseudomonas aeruginosa, Pseudomonas aeruginosa 1, Pseudomonas aeruginosa 6, Pseudomonas aeruginosa 8. Pseudomonas aeruginosa 9 and Pseudomonas aeruginosa 12, totally 9 clinical strains. The MRSA and MSSA clinical strains were tested by the same method as Staphylococcus aureus ATCC29213, and Pseudomonas clinical strains were tested by the same method as Pseudomonas aeruginosa ATCC 27853.
(§3) Each of the peptide solutions to be tested was diluted with MHB to obtain a solution of 128 μg/mL. This solution was serially diluted with the medium to prepare peptide-containing media having concentrations of 128, 64, 32, 16, 8.0, 4.0 and 2.0 μg/mL respectively. […] By dilution with sterilized purified water to 1.0 mg/mL, positive control-containing media having concentrations of 16, 8, 4, 2, 1.0, 0.25, 0.12 and 0.06 μg/mL, respectively for TOB; 0.5, 0.12 and 0.06 μg/mL, respectively, for OX; and 16, 8, 4, 2, 1.0, 0.25, 0.12, 0.06, 0.06, 0.03 and 0.008 μg/mL, respectively, for MEPM, were prepared.
(§4) To a 96-well microtiter plate, 0.1 mL of the inoculation solution and 0.1 mL of the peptide- or positive control-containing medium having the respective concentration were added, and cultured at 37° C. for 16 to 24 hours (or a time period suited for the growth of the respective strain). The well not containing the sample was used as a negative control. After the culturing, the growth was visually observed, and the minimum concentration at which the growth was inhibited was defined as the minimum growth inhibition concentration (MIC).
(§5) The medium used in this test for bacteria was Mueller-Hinton broth. Independent experiments were carried out twice or more for each strain.

[2] = tested on: methicillin-resistant Staphylococcus (MRSA) MRSA(ii); assay: organism not typed; details: for MIC: read-out: MIC MRSA(ii)
Protocol: as §1, §2, §3, §4, §5

[3] = tested on: methicillin-sensitive Staphylococcus (MSSA) MSSA(ii); assay: organism not typed; details: for MIC: read-out: MIC MSSA(ii)
Protocol: as §1, §2, §3, §4, §5

[4] = tested on: Escherichia coli ATCC 25922; assay: ATP Assay (viability at 3 hours), Table 6; type: cell-based; details: for viability at 10 µg/mL: ATCC25922, 3 h, read-out: Escherichia coli ATP (viability, relative value to negative control); for Escherichia coli ATP (viability, relative value to negative control): 3 h, 5 μg/mL
Method in brief: (§6)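 Log-phase bacteria at about 10^5 CFU/mL final in Mueller-Hinton broth were exposed 3 h at 37 °C to peptide (solution prepared at 10 μg/mL before 1:1 mixing with inoculum). ATP (BacTiter-Glo luminescence) relative to untreated wells defined viability; two independent experiments.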

[5] = tested on: Pseudomonas aeruginosa ATCC 27853; assay: ATP Assay (viability at 3 hours), Table 6; type: cell-based; details: for viability at 10 µg/mL: ATCC27853, 3 h, read-out: Pseudomonas aeruginosa ATP (viability, relative value to negative control); for Pseudomonas aeruginosa ATP (viability, relative value to negative control): 3 h, 5 μg/mL
Method in brief: as §6

[6] = tested on: Staphylococcus aureus ATCC29213; assay: ATP Assay (viability at 3 hours), Table 6; type: cell-based; details: for viability at 10 µg/mL: ATCC29213, 3 h, read-out: Staphylococcus aureus ATP (viability, relative value to negative control); for Staphylococcus aureus ATP (viability, relative value to negative control): 3 h, 5 μg/mL
Method in brief: as §6

[7] = tested on: methicillin-sensitive Staphylococcus (MSSA) MSSA(i); assay: organism not typed; details: Table 4; clinical strain; first/second value where not identical
Protocol: as §1, §2, §3, §4, §5

[8] = tested on: Streptococcus pyogenes JCM5674
[9] = tested on: Fusarium solani JCM11383
[10] = tested on: Trichophyton mentagrophytes NBRC6124; details: NBRC6124
[11] = methicillin-resistant Staphylococcus (i)
[12] = Table 4, clinical strain, first/second value where not identical
[13] = methicillin-sensitive Staphylococcus (ii)
[14] = Table 4, two tests, first/second value where not identical
[15] = methicillin-resistant Staphylococcus (ii)

Row | Compound | MIC [1] [µg/mL] | MIC [2] [µg/mL] | MIC [3] [µg/mL] | viability at 10 µg/mL [4] [%] | viability at 10 µg/mL [5] [%] | viability at 10 µg/mL [6] [%] | MIC MRSA(i) [1, 11] [µg/mL] | MIC MRSA(ii) [2, 12] | MIC MSSA(i) [7] | MIC MSSA(ii) [3, 13] [µg/mL] | Escherichia coli ATP (viability, relative value to negative control) [4] | Pseudomonas aeruginosa ATP (viability, relative value to negative control) [5] | Staphylococcus aureus ATP (viability, relative value to negative control) [6] | MIC Streptococcus pyogenes [8] [µg/mL] | MIC Fusarium solani [9, 14] | MIC Trichophyton mentagrophytes [10] [µg/mL] | MIC MRSA(i) [1, 12] | MIC MSSA(ii) [3, 12] | MIC Fusarium solani ([9]; JCM11383) [µg/mL] | MIC MRSA(ii) [2, 15] [µg/mL]
1 | C[C@@H](O)[C@H]1C(=O)N2C(C(=O)O)=C(S[C@@H]3CN[C@H](C(=O)N(C)C)C3)[C@H](C)[C@H]12 [meropenem, reference compound] | < 4000 | 8 to 16 (≈ 20.9 to 41.7 µM) | 4 to 8 (≈ 10.4 to 20.9 µM) | 15.3 | 16.1 | 15.7 | – | – | – | – | – | – | – | – | – | – | – | – | – | –
2 | NC[C@H]1O[C@H](O[C@H]2[C@H](O)[C@@H](O[C@H]3O[C@H](CO)[C@@H](O)[C@H](N)[C@H]3O)[C@H](N)C[C@@H]2N)[C@H](N)C[C@@H]1O [tobramycin, reference compound] | > 16000 | > 16000 | 4 (≈ 8.56 µM) | 74.3 | 1.2 | 6.7 | – | – | – | – | – | – | – | – | – | – | – | – | – | –
3 | GRLKRMGERLKRKIQKWIRW-NH2 [SRP-15] | – | – | – | – | – | – | 16 | 16/32 | 16/32 | 16 | 0.5 | 1.6 | 0.3 | 16 | 16/32 | 32 | – | – | – | –
4 | GRLKRMGKRLKRKIQKWARW-NH2 [SRP-14] | – | – | – | – | – | – | – | 16/32 | 16/32 | – | 1.2 | 1.0 | 0.3 | 16 | – | 16 | 16/32 | 16/32 | 4 | –
5 | IFLHRLKRMRKRLKRKLRLW-OH [SRP-7] | – | – | – | – | – | – | – | – | – | – | 1.6 | 1.0 | 0.2 | 32 | – | 32 | – | – | 8 | –
6 | KLIFLHRLKRELRKRLKRKLR-NH2 [SRP-13] | – | – | – | – | – | – | 64 | – | 16/32 | 16 | 2.2 | 2.2 | 2.0 | 32 | 4/8 | 32 | – | – | – | 64
7 | KLIFLRELRRLRKRLKRKLR-NH2 [SRP-16] | – | – | – | – | – | – | 32 | – | 16/32 | 16 | 0.9 | 1.0 | 0.4 | 32 | 4/8 | 32 | – | – | – | 64
8 | KNLRRIIRKIIHIIKKYG-NH2 [Ovispirin-1, reference compound] | – | – | – | – | – | – | 32 | – | 16/32 | 16 | – | – | – | 32 | 4/8 | 32 | – | – | – | 32
9 | LIFLHRLKRMRKRLKRKLRL-NH2 [SRP-12] | – | – | – | – | – | – | 32 | 32/64 | 16 µg/mL | 16 | 6.5 | 1.0 | 0.2 | – | – | – | – | – | – | –
10 | RLKRMRKRLKRKLRLW-NH2 [SRP-17] | – | – | – | – | – | – | – | – | – | – | 0.4 | 1.0 | 0.3 | 128 | – | 16 | – | – | 8 | –
11 | RLKRMRKRLKRKLRLWHRKRYK-NH2 [SRP-8] | – | – | – | – | – | – | 64 | – | 32/64 | 32 | 1.7 | 0.9 | 0.4 | 64 | – | 32 | – | – | 4 | 64
